Each structure is given as a SMILES string.

A word on the IC50: it is the concentration needed to halve the response being measured.

BCL2, sequence (P10415 whole entry): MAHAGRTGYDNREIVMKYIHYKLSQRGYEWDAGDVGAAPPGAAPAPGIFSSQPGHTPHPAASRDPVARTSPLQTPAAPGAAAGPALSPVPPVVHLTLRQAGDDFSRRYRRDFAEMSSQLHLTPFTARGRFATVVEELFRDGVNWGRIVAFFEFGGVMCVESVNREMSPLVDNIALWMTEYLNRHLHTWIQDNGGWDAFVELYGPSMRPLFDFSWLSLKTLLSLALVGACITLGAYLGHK

The target in this assay is BCL2 (Homo sapiens, UniProt P10415). The experiment in a line: Biacore SPR solution inhibition assay of BCL-2 binding to peptide derivatized sensor surfaces. The following applies: SPR competition; 56 nM BCL2 pre-equilibrated with compound one hour; biotinylated BAK, BAD and NOXA peptide surfaces; 25° C. An excerpt:
The present method includes utility of a Surface plasmon resonance (SPR)-based biosensor (Biacore™ GE Healthcare, Uppsala, Sweden) to characterize BCL-2 inhibitors.
Biacore™ utilizes the phenomenon of surface plasmon resonance (SPR) to detect and measure binding interactions. In a typical Biacore experiment, one of the interacting molecules (ligand) is immobilized on a flexible dextran matrix while the interacting partner (analyte) is allowed to flow across that surface. A binding interaction results in an increase in mass on the sensor surface and a corresponding direct change in the refractive index of the medium in the vicinity of the sensor surface. Changes in refractive index or signal are recorded in resonance units (R.U.) Signal changes due to association and dissociation of complexes are monitored in a non-invasive manner, continuously and in real-time, the results of which are reported in the form of a sensorgram. The SPR assay is configured to examine solution inhibition of BCL-2 binding to peptide derivatized sensor surfaces to generate […] values as a measure of inhibitor potency.
Biacore™ A100 (GE Healthcare, Uppsala, Sweden) was used to conduct all experiments reported herein. Sensor surface preparation and all interaction analyses experiments were performed at 25° C. Reagents were purchased from GE Healthcare. Running buffer containing 10 mM Hepes, pH7.4, 150 mM sodium chloride, 1.25 mM Dithiothreitol, 3% Dimethyl sulfoxide and 0.05% polysorbate 20 were utilized throughout all analyses.
Biotinylated BAK, BAD and NOXA peptides were diluted to 10 nM in running buffer and captured onto a sensor surface pre-derivatized with streptavidin (sensor chip SA) to peptide surface densities in the range 50-100 R.U. Peptide captured surfaces were blocked with 500 μM PEO2-Biotin.
Interaction analyses were performed by first equilibrating each sample within a 6 point three fold compound dilution series in the range 16 μM to 0.004 nM with 56 nM BCL2 for one hour during instrument start-up procedures. Protein compound mixtures were then injected over each peptide surface in parallel for 60 seconds at a flow-rate of 30 μL/min. 56 nM BCL2 control samples were also prepared and run at regular intervals during the assay. Surface regeneration was performed at the end of each analysis cycle by two 30 second injections of 10 mM Glycine, pH 2.5, 1M Sodium Chloride, 0.05% polysorbate 20. Samples and control compound samples were run in duplicate and controls are also run at regular intervals during the assay to monitor surface and assay performance.
Data analyses are carried out using Biacore™ A100 evaluation software v1.1 to validate assay quality. Binding level report points were used relative to BCL2 control samples to calculate % inhibition values for each compound protein mixture.
(Surface plasmon resonance follows binding to a sensor surface in real time, without labels.)
With `CN(C)CC[C@H](CSc1ccccc1)Nc1c(F)cc(S(=O)(=O)Nc2ncnc3c2CCN(C2CCN(Cc4ccccc4-c4ccc(Cl)cc4)CC2)C3)cc1F` [Example 12, (R)-N-(7-(1-((4′-chlorobiphenyl-2-yl)methyl)piperidin-4-yl)-5,6,7,8-tetrahydropyrido[3,4-d]pyrimidin-4-yl)-4-(4-(dimethylamino)-1-(phenylthio)butan-2-ylamino)-3,5-difluorobenzenesulfonamide], the IC50 is 3060 nM.
Under `O=S(=O)(Nc1ncnc2c1CCN(C1CCN(Cc3ccccc3-c3ccc(Cl)cc3)CC1F)C2)c1ccc(N[C@H](CCN2CCOCC2)CSc2ccccc2)c(S(=O)(=O)C(F)(F)F)c1` (stereo partly drawn) [Example 65, N-(7-(1((4′-Chlorobiphenyl-2-yl)methyl)-3-fluoropiperidin-4-yl)-5,6,7,8-tetrahydropyrido[3,4-d]pyrimidin-4-yl)-4-((R)-4-morpholino-1-(phenylthio)butan-2-ylamino)-3-(trifluoromethylsulfonyl)benzenesulfonamide] stands 181 nM.
In the case of `CN(C)CC[C@H](CSc1ccccc1)Nc1ccc(S(=O)(=O)Nc2ncnc3c2CCN(C2CCN(Cc4ccc(F)cc4-c4ccc(Cl)cc4)CC2)C3)cc1S(=O)(=O)C(F)(F)F` [Example 19, (R)-N-(7-(1-((4′-chloro-5-fluorobiphenyl-2-yl)methyl)piperidin-4-yl)-5,6,7,8-tetrahydropyrido[3,4-d]pyrimidin-4-yl)-4-(4-(dimethylamino)-1-(phenylthio)butan-2-ylamino)-3-(trifluoromethylsulfonyl)benzenesulfonamide], the IC50 came to 35 nM.
Regarding `CC(c1ccccc1-c1ccc(Cl)cc1)N1CCC(N2CCc3c(ncnc3NS(=O)(=O)c3ccc(N[C@H](CCN(C)C)CSc4ccccc4)c(S(=O)(=O)C(F)(F)F)c3)C2)CC1` (stereo partly drawn) [Example 51, N-(7-(1-(1-(4′-chlorobiphenyl-2-yl)ethyl)piperidin-4-yl)-5,6,7,8-tetrahydropyrido[3,4-d]pyrimidin-4-yl)-4-((R)-4-(dimethylamino)-1-(phenylthio)butan-2-ylamino)-3-(trifluoromethylsulfonyl)benzenesulfonamide], the IC50 came to 35 nM.
As to `CN(C)CC[C@H](CSc1cc(Cl)cc(Cl)c1)Nc1ccc(S(=O)(=O)Nc2ncnc3c2CCN(C2CCN(Cc4ccccc4-c4ccc(Cl)cc4)CC2)C3)cc1S(=O)(=O)C(F)(F)F` [Example 41, (R)-N-(7-(1-((4′-chlorobiphenyl-2-yl)-methyl)piperidin-4-yl)-5,6,7,8-tetrahydropyrido[3,4-c]pyrimidin-4-yl)-4-(1-(3,5-dichlorophenylthio)-4-(dimethylamino)butan-2-ylamino)-3-(trifluoromethylsulfonyl)benzenesulfonamide], the IC50 is 259 nM.
Under `[2H]C1(N2CCc3c(ncnc3NS(=O)(=O)c3ccc(N[C@H](CCN4CCOCC4)CSc4ccccc4)c(S(=O)(=O)C(F)(F)F)c3)C2)CCN([C@H](C)c2ccccc2-c2ccc(Cl)cc2)CC1` [Example 86, N-(7-{1-[(R)-1-(4′-Chloro-biphenyl-2-yl)-ethyl]-4-deuteropiperidin-4-yl}-5,6,7,8-tetrahydro-pyrido[3,4-d]pyrimidin-4-yl)-4-((R)-3-morpholin-4-yl-1-phenylsulfanylmethyl-propylamino)-3-trifluoromethanesulfonyl-benzenesulfonamide] stands 46 nM; under `O=S(=O)(Nc1nc(C(F)(F)F)nc2c1CCN(C1CCN(Cc3ccccc3-c3ccc(Cl)cc3)CC1)C2)c1ccc(N[C@H](CCN2CCOCC2)CSc2ccccc2)c(S(=O)(=O)C(F)(F)F)c1` [Example 68, (R)-N-(7-(1-((4′-chlorobiphenyl-2-yl)methyl)piperidin-4-yl)-2-(trifluoromethyl)-5,6,7,8-tetrahydropyrido[3,4-d]pyrimidin-4-yl)-4-(4-morpholino-1-(phenylthio)butan-2-ylamino)-3-(trifluoromethylsulfonyl)benzenesulfonamide], 235 nM; under `CC1(C)CCC(CN2CCC(N3CCc4c(ncnc4NS(=O)(=O)c4ccc(N[C@H](CCN5CCOCC5)CSc5ccccc5)c(S(=O)(=O)C(F)(F)F)c4)C3)CC2)=C(c2ccc(Cl)cc2)C1` [Example 16, (R)-N-(7-(1-((2-(4-chlorophenol)-4,4-dimethylcyclohex-1-enyl)methyl)piperidin-4-yl)-5,6,7,8-tetrahydropyrido[3,4-d]pyrimidin-4-yl)-4-(4-morpholino-1-(phenylthio)butan-2-ylamino)-3-(trifluoromethylsulfonyl)benzenesulfonamide], 41 nM.
Under `CN(C)CC[C@H](CSc1ccccc1)Nc1ccc(S(=O)(=O)Nc2nc(C(F)(F)F)nc3c2CCN(C2CCN(Cc4ccccc4-c4ccc(Cl)cc4)CC2F)C3)cc1S(=O)(=O)C(F)(F)F` (stereo partly drawn) [Example 69, N-(7-(1-((4′-chlorobiphenyl-2-yl)methyl)-3-fluoropiperidin-4-yl)-2-(trifluoromethyl)-5,6,7,8-tetrahydropyrido[3,4-d]pyrimidin-4-yl)-4-((R)-4-(dimethylamino)-1-(phenylthio)butan-2-ylamino)-3-(trifluoromethylsulfonyl)benzenesulfonamide] stands 47 nM; under `[2H]C1(N2CCc3c(ncnc3NS(=O)(=O)c3ccc(N[C@H](CCN4CCN(C)CC4)CSc4ccccc4F)c(S(=O)(=O)C(F)(F)F)c3)C2)CCN(Cc2cc(F)ccc2-c2ccc(Cl)cc2)CC1` [Example 87, (R)-N-(7-(1-((4′-chloro-4-fluorobiphenyl-2-yl)methyl)-4-deuteropiperidin-4-yl)-5,6,7,8-tetrahydropyrido[3,4-d]pyrimidin-4-yl)-4-(1-(2-fluorophenylthio)-4-(4-methylpiperazin-1-yl)butan-2-ylamino)-3-(trifluoromethylsulfonyl)benzenesulfonamide], 32 nM; under `COC1(Cc2ccccc2-c2ccc(Cl)cc2)CCC(N2CCc3c(ncnc3NS(=O)(=O)c3ccc(N[C@H](CCN(C)C)CSc4ccccc4)c(S(=O)(=O)C(F)(F)F)c3)C2)CC1` (mixture of isomers) [Example 60, (R)-N-(7-(4-((4′-chlorobiphenyl-2-yl)methyl)-4-methoxycyclohexyl)-5,6,7,8-tetrahydropyrido[3,4-d]pyrimidin-4-yl)-4-(4-(dimethylamino)-1-(phenylthio)butan-2-ylamino)-3-(trifluoromethylsulfonyl)benzenesulfonamide], 63 nM.
In the case of `CN(C)CC[C@H](CSc1ccccc1)Nc1ccc(S(=O)(=O)Nc2ncnc3c2CCN(C2CCC(=Cc4ccccc4-c4ccc(Cl)cc4)CC2)C3)cc1S(=O)(=O)C(F)(F)F` (stereo partly drawn) [Example 62, N-(7-(4-((4′-chlorobiphenyl-2-yl)methylene)cyclohexyl)-5,6,7,8-tetrahydropyrido[3,4-d]pyrimidin-4-yl)-4-((R)-4-(dimethylamino)-1-(phenylthio)butan-2-ylamino)-3-(trifluoromethylsulfonyl)benzenesulfonamide], the IC50 was found to be 174 nM.
Under `C[C@H](CSc1ccccc1)Nc1ccc(S(=O)(=O)Nc2ncnc3c2CCN(C2CCN(CC4=C(c5ccc(Cl)cc5)CC(C)(C)CC4)CC2)C3)cc1S(=O)(=O)C(F)(F)F` [Example 45, N-(7-(1-((2-(4-chlorophenyl)-4,4-dimethylcyclohex-1-enyl)methyl)piperidin-4-yl)-5,6,7,8-tetrahydropyrido[3,4-d]pyrimidin-4-yl)-4-(1-(phenylthio)propan-2-ylamino)-3-(trifluoromethylsulfonyl)benzenesulfonamide] stands 365 nM; under `CN1CCN(CC[C@H](CSc2ccccc2F)Nc2ccc(S(=O)(=O)Nc3ncnc4c3CCN(C3CCN(Cc5ccccc5-c5ccc(Cl)cc5)CC3)C4)cc2S(=O)(=O)C(F)(F)F)CC1` [Example 56, (R)-N-(7-(1-((4′-chlorobiphenyl-2-yl)methyl)piperidin-4-yl)-5,6,7,8-tetrahydropyrido[3,4-d]pyrimidin-4-yl)-4-(1-(2-fluorophenylthio)-4-(4-methylpiperazin-1-yl)butan-2-ylamino)-3-(trifluoromethylsulfonyl)benzenesulfonamide], 27 nM; under `C[C@H]1CC(N2CCc3c(ncnc3NS(=O)(=O)c3ccc(N[C@H](CCN(C)C)CSc4ccccc4)c(S(=O)(=O)C(F)(F)F)c3)C2)CCN1Cc1ccccc1-c1ccc(Cl)cc1` (mixture of isomers) [Example 4, N-(7-((2S)-1-((4′-chlorobiphenyl-2-yl)methyl)-2-methylpiperidin-4-yl)-5,6,7,8-tetrahydropyrido[3,4-d]pyrimidin-4-yl)-4-((R)-4-(dimethylamino)-1-(phenylthio)butan-2-ylamino)-3-(trifluoromethylsulfonyl)benzenesulfonamide], 22 nM.

Source of the values: patent US8809352B2, “Sulfonamides as inhibitors of Bcl-2 family proteins for the treatments of cancer” (Novartis AG, priority 2009, dated 2014).
